Reference: patent US20220168431A1, “METHODS OF TREATING CANCER USING TRIMETAZIDINE-BASED COMPOUNDS” (IMBRIA PHARMACEUTICALS, INC., priority 2019, published 2022)

What was measured:
Conditions in all cases: 10 μM CV-8814
[1] = target: Muscarinic M1 (Homo sapiens, UniProt P11229); type: binding
[2] = target: Transporter, Serotonin (5-Hydroxytryptamine) (SERT) (Homo sapiens, UniProt P31645); type: binding
[3] = target: Dopamine D1 (Homo sapiens, UniProt P21728); type: binding
[4] = target: Histamine H1 (Homo sapiens, UniProt P35367); type: binding
[5] = target: Progesterone PR-B (Homo sapiens, UniProt P06401); type: binding
[6] = target: Calcium Channel N-Type (Rattus norvegicus, UniProt Q02294); type: binding
[7] = target: Adrenergic α1D (Homo sapiens, UniProt P25100); type: binding
[8] = target: Glutamate, Metabotropic, mGlu5 (Homo sapiens, UniProt P41594); type: binding
[9] = target: Serotonin (5-Hydroxytryptamine) 5-HT2A (Homo sapiens, UniProt P28223); type: binding
[10] = target: Cholecystokinin CCK1 (CCKA) (Homo sapiens, UniProt P32238); type: binding
[11] = target: Transporter, Norepinephrine (NET) (Homo sapiens, UniProt P23975); type: binding
[12] = target: Opiate δ1 (OP1, DOP) (Homo sapiens, UniProt P41143); type: binding
[13] = target: Peptidase, CTSG (Cathepsin G) (Homo sapiens, UniProt P08311); type: biochemical
[14] = target: Adenosine A1 (Homo sapiens, UniProt P30542); type: binding
[15] = target: Peptidase, Angiotensin Converting Enzyme (Oryctolagus cuniculus, UniProt P12822); type: biochemical, rabbit
[16] = target: Tachykinin NK1 (Homo sapiens, UniProt P25103); type: binding
[17] = target: Protein Tyrosine Kinase, LCK (Homo sapiens, UniProt P06239); type: biochemical
[18] = target: Serotonin (5-Hydroxytryptamine) 5-HT1B (Homo sapiens, UniProt P28222); type: binding
[19] = target: Vasopressin V1A (Homo sapiens, UniProt P37288); type: binding
[20] = target: Glucocorticoid (Homo sapiens, UniProt P04150); type: binding
[21] = target: Bradykinin B2 (Homo sapiens, UniProt P30411); type: binding
[22] = target: Chemokine CCR1 (Homo sapiens, UniProt P32246); type: binding
[23] = target: Melanocortin MC1 (Homo sapiens, UniProt Q01726); type: binding
[24] = target: Platelet Activating Factor (PAF) (Homo sapiens, UniProt P25105); type: binding
[25] = target: Chemokine CXCR2 (IL-8RB) (Homo sapiens, UniProt P25025); type: binding
[26] = target: Adrenergic α1A (Rattus norvegicus, UniProt P43140); type: binding
[27] = target: Serotonin (5-Hydroxytryptamine) 5-HT2B (Homo sapiens, UniProt P41595); type: binding
[28] = target: Muscarinic M4 (Homo sapiens, UniProt P08173); type: binding
[29] = target: Cholecystokinin CCK2 (CCKB) (Homo sapiens, UniProt P32239); type: binding
[30] = target: Dopamine D2L (Homo sapiens, UniProt P14416); type: binding
[31] = target: Serotonin (5-Hydroxytryptamine) 5-HT3 (Homo sapiens, UniProt P46098); type: binding
[32] = target: Endothelin ETA (Homo sapiens, UniProt P25101); type: binding
[33] = target: Neuropeptide Y Y1 (Homo sapiens, UniProt P25929); type: binding
[34] = target: Estrogen ERα (Homo sapiens, UniProt P03372); type: binding
[35] = target: Muscarinic M3 (Homo sapiens, UniProt P20309); type: binding
[36] = target: Transporter, Dopamine (DAT) (Homo sapiens, UniProt Q01959); type: binding
[37] = target: Protein Tyrosine Kinase, Insulin Receptor (Homo sapiens, UniProt P06213); type: biochemical
[38] = target: Angiotensin AT1 (Homo sapiens, UniProt P30556); type: binding
[39] = target: Histamine H2 (Homo sapiens, UniProt P25021); type: binding

Measured: inhibition at 10 µM

Chain of Transporter, Serotonin (5-Hydroxytryptamine) (SERT) (P31645 whole entry): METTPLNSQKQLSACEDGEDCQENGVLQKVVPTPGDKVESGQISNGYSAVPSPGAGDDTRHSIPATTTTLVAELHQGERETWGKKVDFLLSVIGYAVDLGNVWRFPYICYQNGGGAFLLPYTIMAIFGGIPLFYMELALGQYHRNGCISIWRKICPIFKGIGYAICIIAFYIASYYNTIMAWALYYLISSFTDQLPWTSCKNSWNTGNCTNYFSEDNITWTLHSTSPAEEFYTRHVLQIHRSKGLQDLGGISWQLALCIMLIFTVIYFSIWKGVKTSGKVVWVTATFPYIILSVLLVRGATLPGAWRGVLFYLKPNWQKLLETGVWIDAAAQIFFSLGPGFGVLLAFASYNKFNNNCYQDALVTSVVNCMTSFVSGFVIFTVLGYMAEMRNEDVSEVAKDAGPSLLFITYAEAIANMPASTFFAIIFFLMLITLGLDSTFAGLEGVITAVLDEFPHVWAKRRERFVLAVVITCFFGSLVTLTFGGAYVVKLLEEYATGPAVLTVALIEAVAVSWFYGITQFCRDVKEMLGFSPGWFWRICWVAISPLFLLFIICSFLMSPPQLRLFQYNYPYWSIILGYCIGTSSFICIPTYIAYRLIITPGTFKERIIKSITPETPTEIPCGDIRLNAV
Chain of Chemokine CCR1 (P32246 whole entry): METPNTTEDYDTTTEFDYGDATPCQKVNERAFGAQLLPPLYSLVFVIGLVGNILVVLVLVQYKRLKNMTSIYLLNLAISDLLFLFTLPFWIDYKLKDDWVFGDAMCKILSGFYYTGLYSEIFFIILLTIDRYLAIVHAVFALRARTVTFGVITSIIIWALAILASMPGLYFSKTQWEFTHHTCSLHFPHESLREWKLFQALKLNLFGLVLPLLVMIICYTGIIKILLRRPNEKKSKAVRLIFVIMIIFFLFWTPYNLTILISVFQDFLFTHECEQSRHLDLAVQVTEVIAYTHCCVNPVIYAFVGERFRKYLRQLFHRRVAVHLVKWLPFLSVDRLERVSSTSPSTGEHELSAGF
Chain of Protein Tyrosine Kinase, Insulin Receptor (P06213 28-1382): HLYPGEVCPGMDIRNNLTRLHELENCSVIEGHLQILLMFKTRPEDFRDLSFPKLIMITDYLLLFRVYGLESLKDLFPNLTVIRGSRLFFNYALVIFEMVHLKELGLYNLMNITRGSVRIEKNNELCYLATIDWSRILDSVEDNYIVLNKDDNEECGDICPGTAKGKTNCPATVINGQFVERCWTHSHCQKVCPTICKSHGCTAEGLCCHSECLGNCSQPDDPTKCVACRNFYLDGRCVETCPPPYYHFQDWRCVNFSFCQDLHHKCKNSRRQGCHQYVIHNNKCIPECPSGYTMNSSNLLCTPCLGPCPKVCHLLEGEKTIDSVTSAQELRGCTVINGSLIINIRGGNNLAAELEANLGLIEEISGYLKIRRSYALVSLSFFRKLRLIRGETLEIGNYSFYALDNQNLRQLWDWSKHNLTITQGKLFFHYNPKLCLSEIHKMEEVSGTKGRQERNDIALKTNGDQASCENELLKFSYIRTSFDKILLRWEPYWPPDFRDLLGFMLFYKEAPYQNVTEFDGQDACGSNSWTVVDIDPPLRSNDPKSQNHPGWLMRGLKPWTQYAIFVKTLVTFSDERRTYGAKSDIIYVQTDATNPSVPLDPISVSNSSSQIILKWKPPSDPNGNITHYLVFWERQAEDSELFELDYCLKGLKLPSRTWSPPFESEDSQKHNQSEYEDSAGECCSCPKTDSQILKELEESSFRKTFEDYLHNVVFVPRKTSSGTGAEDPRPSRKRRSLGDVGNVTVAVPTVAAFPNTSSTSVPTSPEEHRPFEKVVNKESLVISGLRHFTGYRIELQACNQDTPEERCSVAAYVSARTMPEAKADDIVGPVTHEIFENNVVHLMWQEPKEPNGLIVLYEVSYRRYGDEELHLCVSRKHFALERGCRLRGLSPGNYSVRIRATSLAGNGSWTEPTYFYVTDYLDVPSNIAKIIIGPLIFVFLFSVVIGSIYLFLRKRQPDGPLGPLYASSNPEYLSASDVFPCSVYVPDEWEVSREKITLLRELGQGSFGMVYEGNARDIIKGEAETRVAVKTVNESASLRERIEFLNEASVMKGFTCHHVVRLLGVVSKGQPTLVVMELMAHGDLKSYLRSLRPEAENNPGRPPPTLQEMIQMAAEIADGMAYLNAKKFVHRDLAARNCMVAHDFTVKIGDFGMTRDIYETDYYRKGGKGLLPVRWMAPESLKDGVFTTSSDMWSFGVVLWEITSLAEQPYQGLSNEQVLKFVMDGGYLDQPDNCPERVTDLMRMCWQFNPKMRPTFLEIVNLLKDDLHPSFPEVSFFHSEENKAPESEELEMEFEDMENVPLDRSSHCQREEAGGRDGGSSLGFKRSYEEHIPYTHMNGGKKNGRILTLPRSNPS
Chain of Muscarinic M4 (P08173 whole entry): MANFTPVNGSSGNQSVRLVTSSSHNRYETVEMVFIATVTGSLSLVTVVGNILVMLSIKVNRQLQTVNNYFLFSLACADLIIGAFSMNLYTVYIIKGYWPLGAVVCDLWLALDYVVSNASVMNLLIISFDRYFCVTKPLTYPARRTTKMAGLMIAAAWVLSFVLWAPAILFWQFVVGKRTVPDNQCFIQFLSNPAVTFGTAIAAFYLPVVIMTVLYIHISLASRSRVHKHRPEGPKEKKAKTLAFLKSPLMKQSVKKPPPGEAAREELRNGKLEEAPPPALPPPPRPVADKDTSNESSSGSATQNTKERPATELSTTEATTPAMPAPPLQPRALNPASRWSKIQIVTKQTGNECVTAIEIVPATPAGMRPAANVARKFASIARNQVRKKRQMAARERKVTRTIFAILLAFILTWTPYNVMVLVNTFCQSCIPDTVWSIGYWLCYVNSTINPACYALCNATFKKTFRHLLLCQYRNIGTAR
Chain of Adenosine A1 (P30542 whole entry): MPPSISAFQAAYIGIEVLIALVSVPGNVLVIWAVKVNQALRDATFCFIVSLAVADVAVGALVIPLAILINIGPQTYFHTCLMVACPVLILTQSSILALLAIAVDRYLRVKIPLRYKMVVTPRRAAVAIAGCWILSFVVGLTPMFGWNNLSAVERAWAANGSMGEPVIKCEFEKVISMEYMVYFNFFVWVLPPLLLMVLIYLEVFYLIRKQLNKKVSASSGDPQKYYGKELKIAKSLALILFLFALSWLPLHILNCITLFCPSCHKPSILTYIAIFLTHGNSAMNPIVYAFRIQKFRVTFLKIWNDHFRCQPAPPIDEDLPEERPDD
Chain of Progesterone PR-B (P06401 whole entry): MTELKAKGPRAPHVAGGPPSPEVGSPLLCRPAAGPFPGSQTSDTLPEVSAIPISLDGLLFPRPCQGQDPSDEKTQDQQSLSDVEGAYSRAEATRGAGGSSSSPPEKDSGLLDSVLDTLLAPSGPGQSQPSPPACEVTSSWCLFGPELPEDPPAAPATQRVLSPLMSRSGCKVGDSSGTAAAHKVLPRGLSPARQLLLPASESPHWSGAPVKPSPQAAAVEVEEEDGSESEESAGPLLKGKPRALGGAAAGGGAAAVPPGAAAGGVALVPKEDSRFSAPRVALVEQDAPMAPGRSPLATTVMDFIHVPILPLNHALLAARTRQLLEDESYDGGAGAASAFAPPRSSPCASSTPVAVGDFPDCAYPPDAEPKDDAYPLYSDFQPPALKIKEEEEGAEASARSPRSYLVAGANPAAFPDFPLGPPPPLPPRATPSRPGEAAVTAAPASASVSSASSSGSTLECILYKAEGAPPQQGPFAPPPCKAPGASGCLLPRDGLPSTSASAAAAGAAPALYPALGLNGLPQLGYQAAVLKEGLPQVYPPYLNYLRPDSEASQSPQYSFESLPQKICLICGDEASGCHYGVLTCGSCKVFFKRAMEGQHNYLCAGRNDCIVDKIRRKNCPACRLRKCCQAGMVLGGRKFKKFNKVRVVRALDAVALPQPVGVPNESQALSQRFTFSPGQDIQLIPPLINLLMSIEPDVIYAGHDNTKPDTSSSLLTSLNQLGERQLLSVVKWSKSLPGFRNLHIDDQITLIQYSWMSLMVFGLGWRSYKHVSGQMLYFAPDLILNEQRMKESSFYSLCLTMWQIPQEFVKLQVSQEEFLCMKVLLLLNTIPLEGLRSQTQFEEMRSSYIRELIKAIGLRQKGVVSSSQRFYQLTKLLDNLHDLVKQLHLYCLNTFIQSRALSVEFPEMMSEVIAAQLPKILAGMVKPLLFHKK
Chain of Serotonin (5-Hydroxytryptamine) 5-HT2A (P28223 whole entry): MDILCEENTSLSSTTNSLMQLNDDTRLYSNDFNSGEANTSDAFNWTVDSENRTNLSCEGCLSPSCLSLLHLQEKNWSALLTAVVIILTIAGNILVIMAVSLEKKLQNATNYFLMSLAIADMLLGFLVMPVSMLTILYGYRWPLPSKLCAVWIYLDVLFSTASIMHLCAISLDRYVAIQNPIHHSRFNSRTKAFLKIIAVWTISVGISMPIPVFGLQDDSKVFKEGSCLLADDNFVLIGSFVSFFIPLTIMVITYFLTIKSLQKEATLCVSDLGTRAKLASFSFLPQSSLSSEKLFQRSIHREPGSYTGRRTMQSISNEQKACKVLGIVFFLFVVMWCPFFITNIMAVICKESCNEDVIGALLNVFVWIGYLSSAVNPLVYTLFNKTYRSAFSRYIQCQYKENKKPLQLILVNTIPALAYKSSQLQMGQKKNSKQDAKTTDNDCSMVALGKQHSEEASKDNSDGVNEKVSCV
Chain of Adrenergic α1A (P43140 whole entry): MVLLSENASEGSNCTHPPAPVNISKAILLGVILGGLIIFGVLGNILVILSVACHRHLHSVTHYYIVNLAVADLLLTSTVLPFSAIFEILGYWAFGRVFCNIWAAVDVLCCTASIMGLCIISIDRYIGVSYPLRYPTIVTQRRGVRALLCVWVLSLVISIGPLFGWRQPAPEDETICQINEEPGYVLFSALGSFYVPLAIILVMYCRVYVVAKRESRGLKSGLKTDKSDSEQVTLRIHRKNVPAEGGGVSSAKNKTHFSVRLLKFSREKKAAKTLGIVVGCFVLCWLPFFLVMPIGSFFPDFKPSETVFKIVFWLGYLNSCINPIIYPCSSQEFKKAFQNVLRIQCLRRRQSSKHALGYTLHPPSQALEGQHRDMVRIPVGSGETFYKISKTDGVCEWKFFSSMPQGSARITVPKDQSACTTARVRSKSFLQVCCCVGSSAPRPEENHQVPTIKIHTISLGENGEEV

COc1ccc(CN2CCN(CCO)CC2)c(OC)c1OC [CV-8814, 2-(4-(2,3,4-trimethoxybenzyl)piperazin-1-yl)ethan-1-01]
< 50%: all assays above
